Experimental data as given in US6130053A, “Method for selecting compounds for inhibition of neoplastic lesions” (priority 1999, dated 2000).
pIC50: −log10 of the molar value. “Also recorded” adds a separate entry of the source.

Columns and labels:
HT-29 cells = assay: Growth inhibition of HT-29 cells; assay type: cell-based, human; settings: HT-29
[1] = system: polyp formation in adenomatous polyposis coli patients; assay: Human clinical study in APC patients, polyp formation; assay type: in vivo
Experimental: A human clinical study was performed in APC patients, selecting exisulind in each instance. In that study, each patient had already had his/her colon removed, except for a small section of colon adjacent the rectum (where the small intestine was attached) to preserve rectal function. However, such a patient commonly forms polyps in the small remaining colonic section, which polyps require periodic removal (e.g., by electrocautery).
That trial where exisulind was selected was a prevention trial designed to compare the cumulative number of new polyps formed over twelve months by the drug and placebo groups. Eligible patients were those who form between 9 and 44 polyps per year. Patients were fully ablated (had all polyps removed) at the start of the study, at the end of 6 months and at the end of 12 months. The study enrolled thirty-four eligible patients. […] Based on the median number of polyps produced in the first six months of the study, patients treated with exisulind developed approximately one-third the number of polyps as patients treated with placebo (median values 9 polyps/year and 26 polyps/year, respectively; p=0.013). Based on the median number of polyps produced over the entire 12 months of the study, patients treated with exisulind produced approximately half the number of polyps as patients treated with placebo (median values 18 polyps/year and 38 polyps/year, respectively; p=0.020).

cGMP PDE = cGMP PDE inhibition assay, enzyme purified from HT-29 cultured tumor cells; assay type: biochemical, human
[2] = system: PSA (prostate specific antigen) level; assay: Human clinical trial post-prostatectomy, PSA level; assay type: in vivo
Experimental: A separate clinical trial was also performed on male patients who had prostate cancer, and as a result had their prostates removed. The study was conducted in patients with detectable PSA (prostate specific antigen) levels that were rising following radical prostatectomy, indicating recurrence of prostate cancer.
96 patients were enrolled in the prostate study: a double-blind, placebo-controlled, multi-center trial involving exisulind administered to the drug-receiving patients at 500 mg/day. […] Although a rising level of PSA is not itself a disease condition, it is widely regarded in the medical community as a surrogate marker indicative of the presence of recurrence of prostate cancer in such men.
In addition to performing an analysis based on the differences in mean PSA levels between the exisulind and placebo groups as a whole, the interim analysis included subgroup analysis. The patients in the study were classified into high, intermediate and low risk groups in terms of their risk of developing metastatic disease. This classification was performed by a researcher at Johns Hopkins University, using the methodology published by them and other Johns Hopkins' researchers in the Journal of the American Medical Association (JAMA May 5, 1999, pp. 1591-97). To ascertain which study patients fell into which risk group, medical histories were supplied to the researcher who was blinded as to whether patients were on drug or placebo; they assigned study patients to the appropriate risk groups according to the above referenced published methodology.

[3] = system: colon, breast, lung, prostate, kidney, and melanoma neoplasias; settings: cited from earlier work
PKG in SW480 cells = assay: PKG expression by Western blot in SW480 cells; assay type: cell-based, human; settings: 48 hours
Experimental: This increase in PKG protein expression was further verified by relatively quantative western blot, as described below.
SW480 cells treated with exisulind as described previously are harvested from the microfuge tubes by rinsing once with ice-cold PBS. The cells are lysed by modified RIPA buffer for 15 minutes with agitation. The cell lysate is spun down in a cold room. The supernatants are transferred to fresh microcentrifuge tubes immediately after spinning. BioRad DC Protein Assay (Temecula, Calif.) is performed to determine the protein concentrations in samples. The samples are normalized for protein concentration, as described above.
50 μg of each sample is loaded to 10% SDS gel. SDS-PAGE is performed, and the proteins then are transferred to a nitrocellulose membrane. The blotted nitrocellulose membrane are blocked in freshly prepared TBST containing 5% nonfat dry milk for one hour at room temperature with constant agitation.
A goat-anti-PKG primary antibody is diluted to the recommended concentration/dilution in fresh TBST/5% nonfat dry milk. The nitrocellulose membrane is placed in the primary antibody solution and incubated one hour at room temperature with agitation. The nitrocellulose membrane is washed three times for ten minutes each with TBST. […]

[4] = target: T1, COX-I (purified cyclooxygenase Type 1) (Ovis aries, UniProt P05979); assay: COX inhibition assay, purified cyclooxygenase (Type 1); assay type: biochemical, ram; settings: FIG. 4
T1 construct: purified cyclooxygenase from ram seminal vesicles; from tissue; host or cells: ram seminal vesicles
T1 sequence (P05979 25-600): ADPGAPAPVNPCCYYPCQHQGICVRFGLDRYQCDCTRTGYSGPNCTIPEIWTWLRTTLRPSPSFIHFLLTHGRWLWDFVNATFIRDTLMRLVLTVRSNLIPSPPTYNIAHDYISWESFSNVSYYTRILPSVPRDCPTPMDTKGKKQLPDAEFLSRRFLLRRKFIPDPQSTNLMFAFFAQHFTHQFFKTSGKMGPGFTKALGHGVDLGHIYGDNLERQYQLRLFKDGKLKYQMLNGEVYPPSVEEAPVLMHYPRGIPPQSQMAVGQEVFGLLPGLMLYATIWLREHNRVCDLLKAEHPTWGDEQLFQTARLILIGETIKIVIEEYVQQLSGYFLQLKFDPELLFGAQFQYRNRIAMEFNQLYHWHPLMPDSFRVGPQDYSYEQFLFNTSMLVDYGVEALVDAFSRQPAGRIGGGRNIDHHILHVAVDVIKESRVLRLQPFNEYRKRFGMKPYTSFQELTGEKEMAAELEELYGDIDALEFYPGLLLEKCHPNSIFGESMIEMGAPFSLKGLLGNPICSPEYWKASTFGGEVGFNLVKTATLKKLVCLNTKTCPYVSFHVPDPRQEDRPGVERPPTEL

pIC50 [4]: < 2.00
SMILES: CC1=C(CC(=O)O)c2cc(F)ccc2/C1=C\c1ccc(S(C)(=O)=O)cc1 [Exisulind, 5-fluoro-2-methyl-1-(p-methylsulfonylbenzylidene)-3-indenylacetic acid]
tumor cell growth inhibition (HT-29 cells): capable of inhibiting tumor cell growth | number of polyps relative to placebo, 12 months ([1]; entire 12 months): approximately half | median number of polyps, 12 months ([1]; entire 12 months, placebo 38 polyps/year): 18 polyps/year | number of polyps relative to placebo, first six months ([1]; first six months): approximately one-third | median number of polyps, first six months ([1]; first six months, placebo 26 polyps/year): 9 polyps/year | decrease of rate of polyp formation ([1]; vs placebo): clinically and statistically significantly better than placebo in decreasing the rate of polyp formation | selectivity cGMP PDE over PDE4 (cGMP PDE): selectivity for the cGMP PDE isoenzyme forms over PDE4 isoforms | PSA levels vs placebo ([2]; 500 mg/day): significantly reduced as compared with the PSA levels of the placebo-treated group; also recorded: statistically significant differences in mean PSA levels between exisulind and placebo patients in both high and intermediate risk groups | Mean PSA level, High Risk ([2]; 500 mg/day, High Risk, placebo 4.98): 2.91 | Mean PSA level, Intermediate Risk ([2]; 500 mg/day, Intermediate Risk, placebo 6.24): 2.95 | Mean PSA level, Overall ([2]; 500 mg/day, Overall, placebo 4.49): 2.85 | "p" value, mean PSA, High Risk ([2]; vs placebo, High Risk): 0.0002 | "p" value, mean PSA, Intermediate Risk ([2]; vs placebo, Intermediate Risk): 0.0053 | "p" value, mean PSA, Overall ([2]; vs placebo, Overall): 0.0004 | reported anti-neoplastic effects [3]: anti-neoplastic effects on colon, breast, lung, prostate, kidney, and melanoma neoplasias | PKG level by Western blot (PKG in SW480 cells): increase of PKG
